Assay results published in patent US9944602B2, “Piperidinone herbicides” (E. I. DU PONT DE NEMOURS AND COMPANY, priority 2014, dated 2018).

Legend:
Format in all cases: in vivo
[1] = test system: barnyardgrass (Echinochloa crus-galli); experiment: Test A preemergence barnyardgrass; conditions: 0 to 100 scale, 0 no effect, 100 complete control
How it was run: (§1)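 Injury was scored by eye on a 0 to 100 scale after about 10 days in the greenhouse, with 100 meaning complete control. Preemergence treatment was a directed spray onto soil over seeds; postemergence treatment went onto one- to two-leaf plants 2–10 cm tall.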

kochia (Kochia scoparia) [2] = experiment: Test A preemergence kochia; conditions: 0 to 100 scale, 0 no effect, 100 complete control
How it was run: as §1

[3] = test system: ragweed (common ragweed, Ambrosia elatior); experiment: Test A preemergence ragweed; conditions: 0 to 100 scale, 0 no effect, 100 complete control
How it was run: as §1

[4] = test system: ryegrass, Italian (Italian ryegrass, Lolium multiflorum); experiment: Test A preemergence ryegrass, Italian; conditions: 0 to 100 scale, 0 no effect, 100 complete control
How it was run: as §1

[5] = test system: foxtail, giant (giant foxtail, Setaria faberii); experiment: Test A preemergence foxtail, giant; conditions: 0 to 100 scale, 0 no effect, 100 complete control
How it was run: as §1

[6] = test system: pigweed (Amaranthus retroflexus); experiment: Test A preemergence pigweed; conditions: 0 to 100 scale, 0 no effect, 100 complete control
How it was run: as §1

[7] = test system: barnyardgrass (Echinochloa crus-galli); experiment: Test A postemergence barnyardgrass; conditions: 0 to 100 scale, 0 is no effect, 100 is complete control
How it was run: as §1

kochia (Kochia scoparia) [8] = experiment: Test A postemergence kochia; conditions: 0 to 100 scale, 0 is no effect, 100 is complete control
How it was run: as §1

[9] = test system: ragweed (common ragweed, Ambrosia elatior); experiment: Test A postemergence ragweed; conditions: 0 to 100 scale, 0 is no effect, 100 is complete control
How it was run: as §1

[10] = test system: ryegrass, Italian (Italian ryegrass, Lolium multiflorum); experiment: Test A postemergence ryegrass, Italian; conditions: 0 to 100 scale, 0 is no effect, 100 is complete control
How it was run: as §1

[11] = test system: foxtail, giant (giant foxtail, Setaria faberii); experiment: Test A postemergence foxtail, giant; conditions: 0 to 100 scale, 0 is no effect, 100 is complete control
How it was run: as §1

[12] = test system: pigweed (Amaranthus retroflexus); experiment: Test A postemergence pigweed; conditions: 0 to 100 scale, 0 is no effect, 100 is complete control
How it was run: as §1

[13] = test system: wheat (Triticum aestivum); experiment: Test A postemergence wheat; conditions: 0 to 100 scale, 0 is no effect, 100 is complete control
How it was run: as §1

corn (Zea mays) = experiment: Test A postemergence corn; conditions: 0 to 100 scale, 0 is no effect, 100 is complete control
How it was run: as §1

[14] = test system: blackgrass (Alopecurus myosuroides); experiment: Test A postemergence blackgrass; conditions: 0 to 100 scale, 0 is no effect, 100 is complete control
How it was run: as §1

[15] = test system: galium (catchweed bedstraw, Galium aparine); experiment: Test A postemergence galium; conditions: 0 to 100 scale, 0 is no effect, 100 is complete control
How it was run: as §1

rice (Oryza sativa) [16] = experiment: Test B flooded paddy test rice; conditions: Table B, Flood, 500 g ai/ha, scale 0 to 100
How it was run: (§2)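 Test pots carrying 2-leaf-stage seedlings were flooded to 3 cm above the soil surface when treated. Compound went directly into the standing water. Plants stayed in the greenhouse at that depth for 13 to 15 d before visual comparison with controls.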

[17] = test system: sedge, umbrella (small-flower umbrella sedge, Cyperus difformis); experiment: Test B flooded paddy test sedge, umbrella; conditions: Table B, Flood, 500 g ai/ha, scale 0 to 100
How it was run: as §2

[18] = test system: ducksalad (Heteranthera limosa); experiment: Test B flooded paddy test ducksalad; conditions: Table B, Flood, 500 g ai/ha, scale 0 to 100
How it was run: as §2

[19] = test system: barnyardgrass (Echinochloa crus-galli); experiment: Test B flooded paddy test barnyardgrass; conditions: Table B, Flood, 500 g ai/ha, scale 0 to 100
How it was run: as §2

rice (Oryza sativa) [20] = experiment: Test C flooded paddy test rice; conditions: Table C, Flood, scale 0 to 100
Source text: (§3) Plant species in the flooded paddy test consisted of rice (Oryza sativa), sedge, umbrella (small-flower umbrella sedge, Cyperus difformis), ducksalad (Heteranthera limosa), and barnyardgrass (Echinochloa crus-galli) grown to the 2-leaf stage for testing. At time of treatment, test pots were flooded to 3 cm above the soil surface, treated by application of test compounds directly to the paddy water, and then maintained at that water depth for the duration of the test. Treated plants and controls were maintained in a greenhouse for 13 to 15 d, after which time all species were compared to controls and visually evaluated. Plant response ratings, summarized in Table C, are based on a scale of 0 to 100 where 0 is no effect and 100 is complete control. A dash (-) response means no test result.

[21] = test system: sedge, umbrella (small-flower umbrella sedge, Cyperus difformis); experiment: Test C flooded paddy test sedge, umbrella; conditions: Table C, Flood, scale 0 to 100
Source text: as §3

[22] = test system: ducksalad (Heteranthera limosa); experiment: Test C flooded paddy test ducksalad; conditions: Table C, Flood, scale 0 to 100
Source text: as §3

[23] = test system: barnyardgrass (Echinochloa crus-galli); experiment: Test C flooded paddy test barnyardgrass; conditions: Table C, Flood, scale 0 to 100
Source text: as §3

SMILES: O=C1NCCC(c2cccc(C(F)(F)F)c2)C1C(=O)Nc1cccc(Cl)c1F (racemic) [Compound 16]
- Barnyardgrass plant response rating ([1]; 125 g ai/ha): 70
- Barnyardgrass plant response rating ([1]; 500 g ai/ha): 90
- Kochia plant response rating (kochia (Kochia scoparia) [2]; 125 g ai/ha): 30
- Kochia plant response rating (kochia (Kochia scoparia) [2]; 500 g ai/ha): 50
- Ragweed plant response rating ([3]; 125 g ai/ha): 0
- Ragweed plant response rating ([3]; 500 g ai/ha): 0
- Ryegrass, Italian plant response rating ([4]; 125 g ai/ha): 20
- Ryegrass, Italian plant response rating ([4]; 500 g ai/ha): 40
- Foxtail, Giant plant response rating ([5]; 125 g ai/ha): 90
- Foxtail, Giant plant response rating ([5]; 500 g ai/ha): 90
- Pigweed plant response rating ([6]; 125 g ai/ha): 0
- Pigweed plant response rating ([6]; 500 g ai/ha): 0
- Plant response rating, Barnyardgrass ([7]; 125 g ai/ha): 70
- Plant response rating, Barnyardgrass ([7]; 500 g ai/ha): 90
- Plant response rating, Kochia (kochia (Kochia scoparia) [8]; 125 g ai/ha): 0
- Plant response rating, Kochia (kochia (Kochia scoparia) [8]; 500 g ai/ha): 20
- Plant response rating, Ragweed ([9]; 125 g ai/ha): 0
- Plant response rating, Ragweed ([9]; 500 g ai/ha): 0
- Plant response rating, Ryegrass, Italian ([10]; 125 g ai/ha): 0
- Plant response rating, Ryegrass, Italian ([10]; 500 g ai/ha): 20
- Plant response rating, Foxtail, Giant ([11]; 125 g ai/ha): 80
- Plant response rating, Foxtail, Giant ([11]; 500 g ai/ha): 80
- Plant response rating, Pigweed ([12]; 125 g ai/ha): 0
- Plant response rating, Pigweed ([12]; 500 g ai/ha): 0
- Plant response rating, Wheat ([13]; 125 g ai/ha): 20
- Plant response rating, Wheat ([13]; 500 g ai/ha): 30
- Plant response rating, Corn (corn (Zea mays); 125 g ai/ha): 0
- Plant response rating, Corn (corn (Zea mays); 500 g ai/ha): 30
- Plant response rating, Blackgrass ([14]; 125 g ai/ha): 40
- Plant response rating, Blackgrass ([14]; 500 g ai/ha): 60
- Plant response rating, Galium ([15]; 125 g ai/ha): 20
- Plant response rating, Galium ([15]; 500 g ai/ha): 20
- Plant response rating (rice (Oryza sativa) [16]): 0
- Plant response rating [17]: 0
- Plant response rating [18]: 0
- Plant response rating [19]: 0
- Plant response rating (rice (Oryza sativa) [20]; 31 g ai/ha): 0
- Plant response rating (rice (Oryza sativa) [20]; 62 g ai/ha): 0
- Plant response rating (rice (Oryza sativa) [20]; 125 g ai/ha): 0
- Plant response rating (rice (Oryza sativa) [20]; 250 g ai/ha): 0
- Plant response rating ([21]; 31 g ai/ha): 0
- Plant response rating ([21]; 62 g ai/ha): 0
- Plant response rating ([21]; 125 g ai/ha): 0
- Plant response rating ([21]; 250 g ai/ha): 0
- Plant response rating ([22]; 31 g ai/ha): 0
- Plant response rating ([22]; 62 g ai/ha): 0
- Plant response rating ([22]; 125 g ai/ha): 0
- Plant response rating ([22]; 250 g ai/ha): 0
- Plant response rating ([23]; 31 g ai/ha): 0
- Plant response rating ([23]; 62 g ai/ha): 0
- Plant response rating ([23]; 125 g ai/ha): 0
- Plant response rating ([23]; 250 g ai/ha): 0

SMILES: O=C1NCCC(c2cccc(C(F)(F)F)c2)C1C(=O)Nc1cccc(F)c1Cl (racemic) [Compound 19]
- Barnyardgrass plant response rating ([1]; 125 g ai/ha): 70
- Barnyardgrass plant response rating ([1]; 500 g ai/ha): 80
- Kochia plant response rating (kochia (Kochia scoparia) [2]; 125 g ai/ha): 0
- Kochia plant response rating (kochia (Kochia scoparia) [2]; 500 g ai/ha): 20
- Ragweed plant response rating ([3]; 125 g ai/ha): 0
- Ragweed plant response rating ([3]; 500 g ai/ha): 20
- Ryegrass, Italian plant response rating ([4]; 125 g ai/ha): 20
- Ryegrass, Italian plant response rating ([4]; 500 g ai/ha): 30
- Foxtail, Giant plant response rating ([5]; 125 g ai/ha): 80
- Foxtail, Giant plant response rating ([5]; 500 g ai/ha): 90
- Pigweed plant response rating ([6]; 125 g ai/ha): 0
- Pigweed plant response rating ([6]; 500 g ai/ha): 0
- Plant response rating, Barnyardgrass ([7]; 125 g ai/ha): 60
- Plant response rating, Barnyardgrass ([7]; 500 g ai/ha): 80
- Plant response rating, Kochia (kochia (Kochia scoparia) [8]; 125 g ai/ha): 0
- Plant response rating, Kochia (kochia (Kochia scoparia) [8]; 500 g ai/ha): 20
- Plant response rating, Ragweed ([9]; 125 g ai/ha): 0
- Plant response rating, Ragweed ([9]; 500 g ai/ha): 0
- Plant response rating, Ryegrass, Italian ([10]; 125 g ai/ha): 0
- Plant response rating, Ryegrass, Italian ([10]; 500 g ai/ha): 20
- Plant response rating, Foxtail, Giant ([11]; 125 g ai/ha): 70
- Plant response rating, Foxtail, Giant ([11]; 500 g ai/ha): 80
- Plant response rating, Pigweed ([12]; 125 g ai/ha): 0
- Plant response rating, Pigweed ([12]; 500 g ai/ha): 0
- Plant response rating, Wheat ([13]; 125 g ai/ha): 0
- Plant response rating, Wheat ([13]; 500 g ai/ha): 30
- Plant response rating, Corn (corn (Zea mays); 125 g ai/ha): 0
- Plant response rating, Corn (corn (Zea mays); 500 g ai/ha): 50
- Plant response rating, Blackgrass ([14]; 125 g ai/ha): 40
- Plant response rating, Blackgrass ([14]; 500 g ai/ha): 50
- Plant response rating, Galium ([15]; 125 g ai/ha): 20
- Plant response rating, Galium ([15]; 500 g ai/ha): 20
- Plant response rating (rice (Oryza sativa) [16]): 0
- Plant response rating [17]: 0
- Plant response rating [18]: 60
- Plant response rating [19]: 60
- Plant response rating (rice (Oryza sativa) [20]; 31 g ai/ha): 0
- Plant response rating (rice (Oryza sativa) [20]; 62 g ai/ha): 0
- Plant response rating (rice (Oryza sativa) [20]; 125 g ai/ha): 0
- Plant response rating (rice (Oryza sativa) [20]; 250 g ai/ha): 0
- Plant response rating ([21]; 31 g ai/ha): 0
- Plant response rating ([21]; 62 g ai/ha): 0
- Plant response rating ([21]; 125 g ai/ha): 0
- Plant response rating ([21]; 250 g ai/ha): 0
- Plant response rating ([22]; 31 g ai/ha): 0
- Plant response rating ([22]; 62 g ai/ha): 0
- Plant response rating ([22]; 125 g ai/ha): 0
- Plant response rating ([22]; 250 g ai/ha): 0
- Plant response rating ([23]; 31 g ai/ha): 0
- Plant response rating ([23]; 62 g ai/ha): 0
- Plant response rating ([23]; 125 g ai/ha): 0
- Plant response rating ([23]; 250 g ai/ha): 0
